# Measured values taken from patent US4435583A, “2-Halo-substituted monic acid A useful as antibacterial compounds” (Beecham Group p.l.c., priority 1981, dated 1984).
# Columns and labels:
# Assay type in all cases: cell-based
# M. suipneumoniae NB12 = experiment: In vitro anti-mycoplasmal MIC; conditions: Friis broth, 0.9% agarose, 6 days, 37° C.
# M. suipneumoniae JF435 = experiment: In vitro anti-mycoplasmal MIC; conditions: Friis broth, 0.9% agarose, 6 days, 37° C.
# M. suipneumoniae HK(2) = experiment: In vitro anti-mycoplasmal MIC; conditions: Friis broth, 0.9% agarose, 6 days, 37° C.
# M. suipneumoniae Str.11 = experiment: In vitro anti-mycoplasmal MIC; conditions: Friis broth, 0.9% agarose, 6 days, 37° C.
# [1] = tested on: M. suipneumoniae J2206/183b; experiment: In vitro anti-mycoplasmal MIC; conditions: Friis broth, 0.9% agarose, 6 days, 37° C.
# M. suipneumoniae MS16 = experiment: In vitro anti-mycoplasmal MIC; conditions: Mesomycoplasma hyopneumoniae, MS16, 144 h, Friis broth, 0.9% agarose, 6 days, 37° C.
# [2] = tested on: M. suipneumoniae PW/C/210; experiment: In vitro anti-mycoplasmal MIC; conditions: Mesomycoplasma hyopneumoniae, 144 h, Friis broth, 0.9% agarose, 6 days, 37° C.
# M. suipneumoniae LABER = experiment: In vitro anti-mycoplasmal MIC; conditions: Mesomycoplasma hyopneumoniae, 144 h, Friis broth, 0.9% agarose, 6 days, 37° C.
# M. suipneumoniae UCD 1 = experiment: In vitro anti-mycoplasmal MIC; conditions: Friis broth, 0.9% agarose, 6 days, 37° C.
# M. suipneumoniae TAM 6N = experiment: In vitro anti-mycoplasmal MIC; conditions: Friis broth, 0.9% agarose, 6 days, 37° C.
# [3] = tested on: M. suipneumoniae ATCC 25095; experiment: In vitro anti-mycoplasmal MIC; conditions: Friis broth, 0.9% agarose, 6 days, 37° C.
# [4] = tested on: M. suipneumoniae NCTC 10110; experiment: In vitro anti-mycoplasmal MIC; conditions: Friis broth, 0.9% agarose, 6 days, 37° C.
# M. hyorhinis ATCC 23234 = experiment: In vitro anti-mycoplasmal MIC; conditions: Mesomycoplasma hyorhinis, ATCC23234, 144 h, Friis broth, 0.9% agarose, 6 days, 37° C.
# [5] = tested on: M. hyosynoviae ATCC 25591; experiment: In vitro anti-mycoplasmal MIC; conditions: 144 h, Friis broth, 0.9% agarose, 6 days, 37° C.
# M. dispar NCTC 10125 = experiment: In vitro anti-mycoplasmal MIC; conditions: 144 h, Friis broth, 0.9% agarose, 6 days, 37° C.
# M. gallisepticum S6 = experiment: In vitro anti-mycoplasmal MIC; conditions: Mycoplasmoides gallisepticum, 144 h, Friis broth, 0.9% agarose, 6 days, 37° C., read-out: MIC
# M. pneumoniae ATCC 15492 = experiment: In vitro anti-mycoplasmal MIC; conditions: Mycoplasmoides pneumoniae, ATCC15492, 144 h, Friis broth, 0.9% agarose, 6 days, 37° C., read-out: MIC
# Bord. bronchiseptica B08 = experiment: MIC against veterinary bacteria; conditions: Bordetella bronchiseptica, B08, 18 h, Diagnostic Sensitivity Test Agar, 37° C., read-out: MIC
# Method: (§1) The values were determined using a two fold serial dilutions in Diagnostic Sensitivity Test Agar with an inoculum of 10^4 organisms and incubation for 18 hours at 37° C.
# Bord. bronchiseptica B09 = experiment: MIC against veterinary bacteria; conditions: Diagnostic Sensitivity Test Agar, 18 hours, 37° C.
# Method: as §1
# [6] = tested on: Corynebacterium pyogenes CY1; experiment: MIC against veterinary bacteria; conditions: Rhodococcus (subgen. Prescottella) equi, Diagnostic Sensitivity Test Agar, 18 hours, 37° C., read-out: MIC
# Method: as §1
# E. coli E1 = experiment: MIC against veterinary bacteria; conditions: Escherichia coli, Diagnostic Sensitivity Test Agar, 18 hours, 37° C., read-out: MIC
# Method: as §1
# E. coli NCTC 10418 = experiment: MIC against veterinary bacteria; conditions: Escherichia coli, NCTC10418, Diagnostic Sensitivity Test Agar, 18 hours, 37° C., read-out: MIC
# Method: as §1
# [7] = tested on: Erysipelothrix rhusiopathiae NCTC 8163; experiment: MIC against veterinary bacteria; conditions: NCTC8163, Diagnostic Sensitivity Test Agar, 18 hours, 37° C., read-out: MIC
# Method: as §1
# Past. haemolytica PA5 = experiment: MIC against veterinary bacteria; conditions: Diagnostic Sensitivity Test Agar, 18 hours, 37° C.
# Method: as §1
# Past. multocida PA1 = experiment: MIC against veterinary bacteria; conditions: Diagnostic Sensitivity Test Agar, 18 hours, 37° C.
# Method: as §1
# Past. multocida PA2 = experiment: MIC against veterinary bacteria; conditions: Diagnostic Sensitivity Test Agar, 18 hours, 37° C.
# Method: as §1
# S. dublin S7 = experiment: MIC against veterinary bacteria; conditions: Salmonella enterica, Diagnostic Sensitivity Test Agar, 18 hours, 37° C., read-out: MIC
# Method: as §1
# S. typhimurium S18 = experiment: MIC against veterinary bacteria; conditions: Salmonella enterica, Diagnostic Sensitivity Test Agar, 18 hours, 37° C., read-out: MIC
# Method: as §1
# Staph. aureus 152 = experiment: MIC against veterinary bacteria; conditions: Diagnostic Sensitivity Test Agar, 18 hours, 37° C.
# Method: as §1
# Staph. aureus B4 = experiment: MIC against veterinary bacteria; conditions: Diagnostic Sensitivity Test Agar, 18 hours, 37° C.
# Method: as §1
# Staph. aureus Oxford = experiment: MIC against veterinary bacteria; conditions: Diagnostic Sensitivity Test Agar, 18 hours, 37° C.
# Method: as §1
# Strep. agalactiae SPA1 = experiment: MIC against veterinary bacteria; conditions: Diagnostic Sensitivity Test Agar, 18 hours, 37° C.
# Method: as §1
# Strep. dysgalactiae SPD1 = experiment: MIC against veterinary bacteria; conditions: Diagnostic Sensitivity Test Agar, 18 hours, 37° C.
# Method: as §1
# [8] = tested on: Strep. suis (group D) SPS11; experiment: MIC against veterinary bacteria; conditions: Diagnostic Sensitivity Test Agar, 18 hours, 37° C.
# Method: as §1
# Strep. uberis SPU1 = experiment: MIC against veterinary bacteria; conditions: Strep. uberis SPU1; Diagnostic Sensitivity Test Agar; 18 hours, 37° C.
# Method: as §1
# Bacillus subtilis 6633 = experiment: MIC against human bacteria; conditions: nutrient agar, 5% chocolated horse blood, 18 hours, 37° C.
# Method: (§2) The values were determined by serial dilutions in nutrient agar with 5% chocolated horse blood after incubations for 18 hours at 37° C.
# [9] = tested on: Neisseria catarrhalis 1502; experiment: MIC against human bacteria; conditions: nutrient agar, 5% chocolated horse blood, 18 hours, 37° C.
# Method: as §2
# P. mirabilis 889 = experiment: MIC against human bacteria; conditions: Proteus mirabilis, nutrient agar, 5% chocolated horse blood, 18 hours, 37° C., read-out: MIC
# Method: as §2
# Past. multocida 1633 = experiment: MIC against human bacteria; conditions: nutrient agar, 5% chocolated horse blood, 18 hours, 37° C.
# Method: as §2
# Strep. 641848-C = experiment: MIC against human bacteria; conditions: nutrient agar, 5% chocolated horse blood, 18 hours, 37° C.
# Method: as §2
smiles,measurement,setting,value
"CCOC(=O)C(F)=C(C)CC1OCC(CC2OC2C(C)C(C)O)C(O)C1O [Example 1, Ethyl-4-[5S-(2S,3S-epoxy-5S-hydroxy-4S-methylhexyl)-3R, 4R-dihydroxytetrahydropyran-2S-yl]-2-fluoro-3-methylbut-2(Z)-enoate]",MIC,M. suipneumoniae NB12,0.5 µg/mL
same,MIC,M. suipneumoniae JF435,0.5 µg/mL
same,MIC,M. suipneumoniae HK(2),0.5 µg/mL
same,MIC,M. suipneumoniae Str.11,0.5 µg/mL
same,MIC,[1],0.5 µg/mL
same,MIC,M. suipneumoniae MS16,0.25 µg/mL
same,MIC,[2],0.25 µg/mL
same,MIC,M. suipneumoniae LABER,0.25 µg/mL
same,MIC,M. suipneumoniae UCD 1,0.5 µg/mL
same,MIC,M. suipneumoniae TAM 6N,0.5 µg/mL
same,MIC,[3],0.5 µg/mL
same,MIC,[4],0.5 µg/mL
same,MIC,M. hyorhinis ATCC 23234,0.25 µg/mL
same,MIC,[5],0.25 µg/mL
same,MIC,M. dispar NCTC 10125,0.1 µg/mL
same,MIC,M. gallisepticum S6,10 µg/mL
same,MIC,M. pneumoniae ATCC 15492,5 µg/mL
same,MIC,Bord. bronchiseptica B08,80 µg/mL
same,MIC,Bord. bronchiseptica B09,20.0 µg/mL
same,MIC,[6],80 µg/mL
same,MIC,E. coli E1,> 80 µg/mL
same,MIC,E. coli NCTC 10418,> 80 µg/mL
same,MIC,[7],80 µg/mL
same,MIC,Past. haemolytica PA5,5.0 µg/mL
same,MIC,Past. multocida PA1,1.3 µg/mL
same,MIC,Past. multocida PA2,0.63 µg/mL
same,MIC,S. dublin S7,> 80 µg/mL
same,MIC,S. typhimurium S18,> 80 µg/mL
same,MIC,Staph. aureus 152,0.63 µg/mL
same,MIC,Staph. aureus B4,0.63 µg/mL
same,MIC,Staph. aureus Oxford,0.63 µg/mL
same,MIC,Strep. agalactiae SPA1,2.5 µg/mL
same,MIC,Strep. dysgalactiae SPD1,1.3 µg/mL
same,MIC,[8],20.0 µg/mL
same,MIC,Strep. uberis SPU1,0.63 µg/mL
same,MIC,Bacillus subtilis 6633,2.5 µg/mL
same,MIC,[9],0.5 µg/mL
same,MIC,P. mirabilis 889,> 100 µg/mL
same,MIC,Past. multocida 1633,1.0 µg/mL
same,MIC,Strep. 641848-C,5.0 µg/mL
